Values joined by “and” are separate entries in the source; they are usually repeats but may differ in a detail not shown here. Identical values can stand only once.
How the values were obtained:
Assay in all cases: Kinase inhibition screen, cell-free 33P ATP assay at 10 μM
Type in all cases: biochemical
[1] = biological target: 140 purified human kinases (Homo sapiens, UniProt Q13164)
In short: (§1)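 Each complex tested in duplicate at 10 μM; cell-free radiometric assay using ^33P ATP on purified enzymes. Hits mapped by HGNC symbol onto the kinome tree.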

[2] = biological target: 140 purified human kinases (Homo sapiens, UniProt P68400)
Chain of 140 purified human kinases (Homo sapiens, UniProt P68400) (P68400 whole entry): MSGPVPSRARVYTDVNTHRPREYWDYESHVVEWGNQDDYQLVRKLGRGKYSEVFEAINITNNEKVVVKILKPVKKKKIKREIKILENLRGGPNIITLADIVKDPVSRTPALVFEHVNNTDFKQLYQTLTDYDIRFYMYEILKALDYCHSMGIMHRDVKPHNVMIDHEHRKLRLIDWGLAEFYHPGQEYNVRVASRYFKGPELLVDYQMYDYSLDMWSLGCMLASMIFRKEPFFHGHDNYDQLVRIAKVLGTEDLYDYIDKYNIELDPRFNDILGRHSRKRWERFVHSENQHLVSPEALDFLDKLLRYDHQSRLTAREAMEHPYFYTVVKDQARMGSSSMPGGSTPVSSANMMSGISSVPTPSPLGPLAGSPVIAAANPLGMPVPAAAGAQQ
In short: as §1

[3] = biological target: 140 purified human kinases (Homo sapiens, UniProt O96017)
Chain of 140 purified human kinases (Homo sapiens, UniProt O96017) (O96017 whole entry): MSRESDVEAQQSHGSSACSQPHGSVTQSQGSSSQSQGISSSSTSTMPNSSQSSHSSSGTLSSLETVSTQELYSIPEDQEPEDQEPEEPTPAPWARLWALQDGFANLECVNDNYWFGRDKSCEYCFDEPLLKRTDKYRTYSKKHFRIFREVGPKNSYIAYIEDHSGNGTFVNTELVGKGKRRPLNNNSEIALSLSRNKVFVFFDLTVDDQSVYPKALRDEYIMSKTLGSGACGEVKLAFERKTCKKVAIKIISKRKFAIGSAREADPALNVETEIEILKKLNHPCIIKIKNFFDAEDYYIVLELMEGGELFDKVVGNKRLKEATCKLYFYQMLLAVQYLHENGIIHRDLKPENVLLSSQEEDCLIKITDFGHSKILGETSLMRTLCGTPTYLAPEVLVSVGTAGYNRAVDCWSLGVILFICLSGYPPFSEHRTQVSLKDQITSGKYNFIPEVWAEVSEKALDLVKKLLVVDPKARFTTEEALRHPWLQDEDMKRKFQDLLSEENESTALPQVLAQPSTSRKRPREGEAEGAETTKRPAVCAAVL
In short: as §1

[4] = biological target: 140 purified human kinases (Homo sapiens, UniProt Q16644); settings: for % Activity inhibition Mean / % Activity inhibition Run 1 / % Activity inhibition Run 2 / % Activity remaining Run 1 / % Activity remaining Run 2: 10 µM
Chain of 140 purified human kinases (Homo sapiens, UniProt Q16644) (Q16644 whole entry): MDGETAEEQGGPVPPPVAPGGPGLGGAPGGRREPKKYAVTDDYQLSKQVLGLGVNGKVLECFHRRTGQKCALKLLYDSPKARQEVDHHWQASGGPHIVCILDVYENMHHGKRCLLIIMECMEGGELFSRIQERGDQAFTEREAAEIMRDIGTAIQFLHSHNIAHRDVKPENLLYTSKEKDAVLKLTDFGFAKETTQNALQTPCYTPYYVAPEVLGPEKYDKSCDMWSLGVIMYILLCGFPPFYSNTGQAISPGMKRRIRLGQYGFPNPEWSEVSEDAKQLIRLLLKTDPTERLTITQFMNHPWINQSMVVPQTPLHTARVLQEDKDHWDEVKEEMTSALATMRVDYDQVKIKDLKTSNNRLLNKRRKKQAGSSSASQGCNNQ
In short: as §1

[5] = biological target: 140 purified human kinases (Homo sapiens, UniProt P29317)
Chain of 140 purified human kinases (Homo sapiens, UniProt P29317) (P29317 24-976): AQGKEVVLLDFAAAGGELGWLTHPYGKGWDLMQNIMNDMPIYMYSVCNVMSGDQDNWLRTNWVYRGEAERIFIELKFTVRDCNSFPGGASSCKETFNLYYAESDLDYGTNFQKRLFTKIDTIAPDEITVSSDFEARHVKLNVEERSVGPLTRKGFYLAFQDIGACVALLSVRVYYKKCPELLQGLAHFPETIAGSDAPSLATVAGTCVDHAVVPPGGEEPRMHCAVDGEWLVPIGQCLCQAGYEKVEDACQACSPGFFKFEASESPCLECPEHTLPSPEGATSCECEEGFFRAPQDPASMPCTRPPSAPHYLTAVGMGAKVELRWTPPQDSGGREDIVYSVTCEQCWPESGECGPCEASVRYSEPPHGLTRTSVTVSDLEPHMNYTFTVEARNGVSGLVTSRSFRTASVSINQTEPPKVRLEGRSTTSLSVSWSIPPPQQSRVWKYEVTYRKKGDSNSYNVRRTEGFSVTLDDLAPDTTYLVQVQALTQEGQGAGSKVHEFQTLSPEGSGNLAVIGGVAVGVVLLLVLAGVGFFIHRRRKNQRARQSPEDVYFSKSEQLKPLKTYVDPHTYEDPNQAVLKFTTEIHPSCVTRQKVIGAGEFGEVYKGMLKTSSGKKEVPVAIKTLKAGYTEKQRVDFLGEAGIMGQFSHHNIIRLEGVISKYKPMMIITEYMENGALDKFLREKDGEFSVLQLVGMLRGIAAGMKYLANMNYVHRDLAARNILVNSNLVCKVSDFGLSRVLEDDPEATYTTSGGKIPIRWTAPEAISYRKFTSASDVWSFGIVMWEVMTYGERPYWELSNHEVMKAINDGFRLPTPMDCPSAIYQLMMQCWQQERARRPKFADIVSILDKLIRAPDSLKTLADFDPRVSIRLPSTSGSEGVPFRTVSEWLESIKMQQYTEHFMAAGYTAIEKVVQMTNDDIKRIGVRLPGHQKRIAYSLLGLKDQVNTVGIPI
In short: as §1

[6] = biological target: 140 purified human kinases (Homo sapiens, UniProt Q5TCY1)
Chain of 140 purified human kinases (Homo sapiens, UniProt Q5TCY1) (Q5TCY1 whole entry): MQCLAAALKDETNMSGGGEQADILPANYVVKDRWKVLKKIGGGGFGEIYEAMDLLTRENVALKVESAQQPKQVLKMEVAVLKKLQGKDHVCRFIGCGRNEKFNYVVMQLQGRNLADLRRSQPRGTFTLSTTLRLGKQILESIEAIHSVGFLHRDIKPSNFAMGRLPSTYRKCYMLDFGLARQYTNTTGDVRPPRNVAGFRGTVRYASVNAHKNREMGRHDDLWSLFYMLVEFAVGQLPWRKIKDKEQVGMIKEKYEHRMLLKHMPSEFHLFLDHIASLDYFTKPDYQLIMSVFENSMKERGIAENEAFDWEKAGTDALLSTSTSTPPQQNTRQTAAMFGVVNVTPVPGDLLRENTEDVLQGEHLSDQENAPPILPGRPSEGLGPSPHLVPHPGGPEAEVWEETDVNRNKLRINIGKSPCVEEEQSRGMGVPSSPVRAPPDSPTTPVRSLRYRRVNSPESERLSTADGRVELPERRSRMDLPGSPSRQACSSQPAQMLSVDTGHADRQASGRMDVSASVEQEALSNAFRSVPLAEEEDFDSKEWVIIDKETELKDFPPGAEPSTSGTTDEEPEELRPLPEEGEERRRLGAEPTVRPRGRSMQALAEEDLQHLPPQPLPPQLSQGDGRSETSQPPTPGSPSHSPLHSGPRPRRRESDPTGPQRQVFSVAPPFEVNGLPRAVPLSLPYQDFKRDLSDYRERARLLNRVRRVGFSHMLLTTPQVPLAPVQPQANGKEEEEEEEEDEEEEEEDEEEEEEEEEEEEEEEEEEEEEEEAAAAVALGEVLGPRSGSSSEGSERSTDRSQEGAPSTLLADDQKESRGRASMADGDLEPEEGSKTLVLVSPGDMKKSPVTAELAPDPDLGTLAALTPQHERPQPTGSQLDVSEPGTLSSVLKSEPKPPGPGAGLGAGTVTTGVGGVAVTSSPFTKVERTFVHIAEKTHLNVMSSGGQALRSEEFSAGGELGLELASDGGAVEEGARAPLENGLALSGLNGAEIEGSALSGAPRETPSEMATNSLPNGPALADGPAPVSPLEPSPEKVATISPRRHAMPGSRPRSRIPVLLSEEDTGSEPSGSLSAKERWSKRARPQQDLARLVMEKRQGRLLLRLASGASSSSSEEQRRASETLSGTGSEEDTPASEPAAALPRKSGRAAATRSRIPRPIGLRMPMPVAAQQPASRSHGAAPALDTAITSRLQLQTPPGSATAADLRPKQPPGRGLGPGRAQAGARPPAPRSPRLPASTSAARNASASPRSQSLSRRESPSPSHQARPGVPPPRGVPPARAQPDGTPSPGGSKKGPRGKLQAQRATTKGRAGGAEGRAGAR
In short: as §1

[7] = biological target: T1, 140 purified human kinases (Homo sapiens, UniProt Q16832)
T1 sequence (Q16832 22-855): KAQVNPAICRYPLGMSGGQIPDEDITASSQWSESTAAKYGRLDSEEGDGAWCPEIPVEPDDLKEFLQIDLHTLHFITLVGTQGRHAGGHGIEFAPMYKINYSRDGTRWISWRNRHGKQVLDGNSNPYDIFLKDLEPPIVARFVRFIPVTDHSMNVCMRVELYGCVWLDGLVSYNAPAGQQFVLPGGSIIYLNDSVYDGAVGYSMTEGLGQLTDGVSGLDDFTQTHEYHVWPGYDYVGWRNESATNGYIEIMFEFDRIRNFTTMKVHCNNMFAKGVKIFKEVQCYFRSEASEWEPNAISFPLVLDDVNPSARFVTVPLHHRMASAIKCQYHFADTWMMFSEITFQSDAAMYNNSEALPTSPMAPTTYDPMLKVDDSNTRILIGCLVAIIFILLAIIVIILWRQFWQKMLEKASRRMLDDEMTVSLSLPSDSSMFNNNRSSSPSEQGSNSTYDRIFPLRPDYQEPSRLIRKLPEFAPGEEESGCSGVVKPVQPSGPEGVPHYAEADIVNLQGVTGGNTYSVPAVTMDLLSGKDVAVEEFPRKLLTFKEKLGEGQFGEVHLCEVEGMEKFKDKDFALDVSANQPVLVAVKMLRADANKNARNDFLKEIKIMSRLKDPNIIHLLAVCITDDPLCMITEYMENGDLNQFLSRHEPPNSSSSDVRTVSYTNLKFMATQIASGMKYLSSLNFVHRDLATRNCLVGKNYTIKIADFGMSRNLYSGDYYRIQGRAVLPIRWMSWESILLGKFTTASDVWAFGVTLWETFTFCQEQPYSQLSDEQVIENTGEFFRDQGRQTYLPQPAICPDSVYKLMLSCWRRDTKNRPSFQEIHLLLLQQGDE
In short: as §1

[8] = biological target: T2, 140 purified human kinases (Homo sapiens, UniProt P54762)
T2 sequence (P54762 18-984): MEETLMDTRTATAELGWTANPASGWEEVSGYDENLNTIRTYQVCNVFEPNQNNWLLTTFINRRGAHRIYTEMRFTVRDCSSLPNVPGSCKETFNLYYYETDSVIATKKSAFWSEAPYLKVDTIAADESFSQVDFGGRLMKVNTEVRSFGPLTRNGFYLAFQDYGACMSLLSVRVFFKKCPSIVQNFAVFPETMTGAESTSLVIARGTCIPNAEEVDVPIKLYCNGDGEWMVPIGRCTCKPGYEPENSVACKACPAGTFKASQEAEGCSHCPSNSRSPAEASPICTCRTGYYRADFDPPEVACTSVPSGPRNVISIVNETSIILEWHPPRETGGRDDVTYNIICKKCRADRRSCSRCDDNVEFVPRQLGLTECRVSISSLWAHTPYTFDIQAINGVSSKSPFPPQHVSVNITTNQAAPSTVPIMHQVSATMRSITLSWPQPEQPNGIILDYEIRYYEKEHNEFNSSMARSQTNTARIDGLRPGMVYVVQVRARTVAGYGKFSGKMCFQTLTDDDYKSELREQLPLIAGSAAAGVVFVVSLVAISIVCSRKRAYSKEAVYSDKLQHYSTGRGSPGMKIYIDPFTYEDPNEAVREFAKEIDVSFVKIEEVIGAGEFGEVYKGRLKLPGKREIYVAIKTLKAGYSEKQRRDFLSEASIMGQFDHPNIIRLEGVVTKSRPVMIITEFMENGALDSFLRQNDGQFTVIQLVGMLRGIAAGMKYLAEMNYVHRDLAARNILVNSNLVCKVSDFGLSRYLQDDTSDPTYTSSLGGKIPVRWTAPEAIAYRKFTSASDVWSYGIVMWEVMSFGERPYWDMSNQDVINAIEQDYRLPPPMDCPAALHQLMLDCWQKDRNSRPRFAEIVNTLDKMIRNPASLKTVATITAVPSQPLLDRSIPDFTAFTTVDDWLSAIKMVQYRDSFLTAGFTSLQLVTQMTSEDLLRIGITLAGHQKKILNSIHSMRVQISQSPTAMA
In short: as §1

Chain of 140 purified human kinases (Homo sapiens, UniProt Q13164) (Q13164 whole entry): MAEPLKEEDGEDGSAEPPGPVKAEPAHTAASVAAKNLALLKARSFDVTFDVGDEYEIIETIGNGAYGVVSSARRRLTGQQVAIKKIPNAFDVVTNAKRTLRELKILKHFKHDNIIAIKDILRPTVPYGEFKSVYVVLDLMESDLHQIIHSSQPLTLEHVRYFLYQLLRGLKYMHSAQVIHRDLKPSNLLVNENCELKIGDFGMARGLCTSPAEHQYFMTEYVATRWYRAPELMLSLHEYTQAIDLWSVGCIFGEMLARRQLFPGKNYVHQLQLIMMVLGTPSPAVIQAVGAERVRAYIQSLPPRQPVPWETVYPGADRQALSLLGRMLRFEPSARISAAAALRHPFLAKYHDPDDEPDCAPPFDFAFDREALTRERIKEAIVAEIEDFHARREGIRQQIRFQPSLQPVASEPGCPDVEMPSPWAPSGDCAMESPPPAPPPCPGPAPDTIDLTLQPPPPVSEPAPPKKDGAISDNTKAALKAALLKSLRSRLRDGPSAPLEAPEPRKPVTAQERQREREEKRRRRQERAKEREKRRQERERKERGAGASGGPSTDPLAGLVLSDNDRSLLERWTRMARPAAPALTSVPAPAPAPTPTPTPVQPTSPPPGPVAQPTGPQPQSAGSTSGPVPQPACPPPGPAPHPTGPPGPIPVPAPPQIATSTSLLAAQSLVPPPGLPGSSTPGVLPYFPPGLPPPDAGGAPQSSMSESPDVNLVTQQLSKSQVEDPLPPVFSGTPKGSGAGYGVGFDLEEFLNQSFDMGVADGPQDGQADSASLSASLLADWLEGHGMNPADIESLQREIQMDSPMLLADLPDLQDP

Structure (SMILES): [Cu+2].[Cu+2].[Cu+2].c1ccc(-c2csc(NCCN(CCNc3nc(-c4ccccn4)cs3)CCNc3nc(-c4ccccn4)cs3)n2)nc1.c1ccc(-c2csc(NCCN(CCNc3nc(-c4ccccn4)cs3)CCNc3nc(-c4ccccn4)cs3)n2)nc1 [[L2Cu3]6+]
- % Activation, Mean value ([1]; ERK5): 2%
- % Inhibition Run 1 ([1]; ERK5): 3%
- % Inhibition Run 2 ([1]; ERK5): -7.2%
- % Inhibition, Mean ([1]; ERK5): -2%
- mean % activity ([1]; ERK5): 102%
- % activity ([1]; ERK5, Run 1): 97%
- % activity ([1]; ERK5, Run 2): 107.2%
- % Inhibition Run 1 ([2]; CK2): -0.5%
- % Inhibition Run 2 ([2]; CK2): 5.6%
- % Inhibition, Mean ([2]; CK2): 2.55%
- mean % activity ([2]; CK2): 97%
- % activity ([2]; CK2, Run 1): 100.5%
- % activity ([2]; CK2, Run 2): 94.4%
- % Inhibition Run 1 ([3]; CHK2): 86.3%
- % Inhibition Run 2 ([3]; CHK2): 76.4%
- % Inhibition, Mean ([3]; CHK2): 81%
- mean % activity ([3]; CHK2): 19%
- % activity ([3]; CHK2, Run 1): 13.7%
- % activity ([3]; CHK2, Run 2): 23.6%
- % Inhibition Run 1 ([4]; MAPKAP-K3): 98.5%
- % Inhibition Run 2 ([4]; MAPKAP-K3): 89.3%
- % Inhibition, Mean ([4]; MAPKAP-K3): 94%
- mean % activity ([4]; MAPKAP-K3): 6%
- % activity ([4]; MAPKAP-K3, Run 1): 1.5%
- % activity ([4]; MAPKAP-K3, Run 2): 10.7%
- % Activity inhibition Mean ([4]; MAPKAP-K3): 93.9%
- % Activity inhibition Run 1 ([4]; MAPKAP-K3): 98.5%
- % Activity inhibition Run 2 ([4]; MAPKAP-K3): 89.3%
- % Activity remaining Run 1 ([4]; MAPKAP-K3): 1.50%
- % Activity remaining Run 2 ([4]; MAPKAP-K3): 10.70%
- % Inhibition Run 1 ([5]; EPH-A2): 3.5%
- % Inhibition Run 2 ([5]; EPH-A2): 9.8%
- % Inhibition, Mean ([5]; EPH-A2): 6.65%
- mean % activity ([5]; EPH-A2): 93%
- % activity ([5]; EPH-A2, Run 1): 96.5%
- % activity ([5]; EPH-A2, Run 2): 90.2%
- % Activation, Mean value ([6]; TTBK1): 9%
- % Inhibition Run 1 ([6]; TTBK1): 10%
- % Inhibition Run 2 ([6]; TTBK1): -27.8%
- % Inhibition, Mean ([6]; TTBK1): -9%
- mean % activity ([6]; TTBK1): 109%
- % activity ([6]; TTBK1, Run 1): 90%
- % activity ([6]; TTBK1, Run 2): 127.8%
- % Inhibition Run 1 ([7]; DDR2): 21.7%
- % Inhibition Run 2 ([7]; DDR2): 11.4%
- % Inhibition, Mean ([7]; DDR2): 17%
- mean % activity ([7]; DDR2): 83%
- % activity ([7]; DDR2, Run 1): 78.3%
- % activity ([7]; DDR2, Run 2): 88.6%
- % Activation, Mean value ([8]; EPH-B1): 14%
- % Inhibition Run 1 ([8]; EPH-B1): -9.9%
- % Inhibition Run 2 ([8]; EPH-B1): -17.3%
- % Inhibition, Mean ([8]; EPH-B1): -14%
- mean % activity ([8]; EPH-B1): 114%
- % activity ([8]; EPH-B1, Run 1): 109.9%
- % activity ([8]; EPH-B1, Run 2): 117.3%
- % Activity Run 1 ([8]; EPH-B1, 10 µM): 109.90%
- % Activity Run 2 ([8]; EPH-B1, 10 µM): 117.30%

Structure (SMILES): CC(=O)[O-].CC(=O)[O-].CC(=O)[O-].CC(=O)[O-].CC(=O)[O-].CC(=O)[O-].[Zn+2].[Zn+2].[Zn+2].c1ccc(-c2csc(NCCN(CCNc3nc(-c4ccccn4)cs3)CCNc3nc(-c4ccccn4)cs3)n2)nc1.c1ccc(-c2csc(NCCN(CCNc3nc(-c4ccccn4)cs3)CCNc3nc(-c4ccccn4)cs3)n2)nc1 [[L2Zn3]6+]
- % Inhibition, Mean ([1]; ERK5): 16%
- mean % activity ([1]; ERK5): 84%
- % activity ([1]; ERK5, duplicate runs): 65% and 104%
- % Inhibition, Mean ([2]; CK2): 13%
- % Inhibition, Run 1 / Run 2 ([2]; CK2): 15% and 12%
- mean % activity ([2]; CK2): 87%
- % activity ([2]; CK2, duplicate runs): 85% and 88%
- % Inhibition, Mean ([3]; CHK2): 22%
- mean % activity ([3]; CHK2): 78%
- % activity ([3]; CHK2, duplicate runs): 64% and 92%
- % Inhibition, Mean ([4]; MAPKAP-K3): 93%
- % Inhibition, Run 1 / Run 2 ([4]; MAPKAP-K3): 94% and 92%
- mean % activity ([4]; MAPKAP-K3): 6.6%
- % Activity inhibition Mean ([4]; MAPKAP-K3): 93.0%
- % Activity inhibition Run 1 ([4]; MAPKAP-K3): 94%
- % Activity inhibition Run 2 ([4]; MAPKAP-K3): 92%
- % Activity remaining Run 1 ([4]; MAPKAP-K3): 6%
- % Activity remaining Run 2 ([4]; MAPKAP-K3): 8%
- % activity ([4]; MAPKAP-K3, duplicate runs): 5.6% and 7.6%
- % Inhibition, Mean ([5]; EPH-A2): 19%
- % Inhibition, Run 1 / Run 2 ([5]; EPH-A2): 21% and 17%
- mean % activity ([5]; EPH-A2): 81%
- % activity ([5]; EPH-A2, duplicate runs): 79% and 83%
- % Activation, Mean value ([6]; TTBK1): 8%
- % Inhibition, Mean ([6]; TTBK1): -8%
- mean % activity ([6]; TTBK1): 108%
- % activity ([6]; TTBK1, duplicate runs): 97% and 119%
- % Inhibition, Mean ([7]; DDR2): 19%
- % Inhibition, Run 1 / Run 2 ([7]; DDR2): 23% and 15%
- mean % activity ([7]; DDR2): 81%
- % activity ([7]; DDR2, duplicate runs): 77% and 85%
- % Inhibition, Mean ([8]; EPH-B1): -0.2%
- % Inhibition, Run 1 / Run 2 ([8]; EPH-B1): 4% and -4.6%
- mean % activity ([8]; EPH-B1): 100%
- % activity ([8]; EPH-B1, duplicate runs): 96% and 105%

— publication PMC8222254, “Self-assembly of an anion receptor with metal-dependent kinase inhibition and potent in vitro anti-cancer properties” (Nature Communications, 2021)
